Consider 28 compounds from patent US11760754B2, “Heterocyclic mitochondrial activity inhibitors and uses thereof” (UNIVERSITÉ DE MONTRÉAL, priority 2017, dated 2023).

A word on the EC50: it is the midpoint of the concentration-response curve.

In one assay the test system is MLL-AF9 cells. Put plainly: MLL-AF9 leukemia cell growth inhibition, dose-response viability assay (CellTiterGlo). It counts as cell-based, murine. Conditions: Mus musculus, MLL-AF9, 120 h, read-out: MLL-AF9 EC50. In short, it runs like this: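 Murine MLL-AF9 leukemia cells (female, MSCV MLL-AF9 IRES Puro transduced) were treated with serial compound dilutions from 10 μM to 0.5 nM in duplicates or quadruplicates. Viability read by CellTiterGlo dose-response.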
On the technique in general: ATP-based viability assays read luminescence as a measure of living cells.

In another assay the test system is OCI-AML3 cells. Put plainly: OCI-AML3 cell growth inhibition, dose-response viability assay (CellTiterGlo). The conditions noted are these: Homo sapiens, OCI-AML-3, 144 h, read-out: AML-3 EC50. It is filed as cell-based. The method, boiled down: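 OCI-AML3 cells seeded, then exposed to compound in serial dilutions from 10 μM to 0.5 nM, in duplicate or quadruplicate. Viability read by CellTiter-Glo.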

As to `O=C(Nc1ccc(C(F)(F)F)cc1[N+](=O)[O-])c1coc(COc2ccc(CCCCn3ccnn3)cc2)n1` [Compound 78, 2-((4-(4-(1H-1,2,3-triazol-1-yl)butyl)phenoxy)methyl)-N-(2-nitro-4-(trifluoromethyl)phenyl)oxazole-4-carboxamide], the EC50 with MLL-AF9 cells is > 10000 nM; with OCI-AML3 cells, 1000 to 10000 nM.
For `CC(C)(C)OC(=O)NCCCCc1ccc(OCc2coc(/C=C/c3ccc(C(F)(F)F)cc3)n2)cc1` [Compound 79, (E)-tert-butyl (4-(4-((2-(4-(trifluoromethyl)styryl)oxazol-4-yl)methoxy)phenyl)butyl) carbamate], the EC50 with MLL-AF9 cells and in the assay on OCI-AML3 cells was 1000 to 10000 nM in each case.
As for `C(=C\c1nc(COc2ccc(CCCCn3ccnn3)cc2)co1)/c1ccncc1` [Compound 80, (E)-4-((4-(4-(1H-1,2,3-triazol-1-yl)butyl)phenoxy)methyl)-2-(2-(pyridin-4-yl)vinyl) oxazole], the EC50 in the assay with MLL-AF9 cells lay in the range of 100 to 500 nM; in the assay on OCI-AML3 cells, 500 to 1000 nM.
For the compound `Fc1cnccc1/C=C/c1nc(COc2ccc(CCCCn3ccnn3)cc2)co1` [Compound 81, (E)-4-((4-(4-(1H-1,2,3-triazol-1-yl)butyl)phenoxy)methyl)-2-(2-(3-fluoropyridin-4-yl)vinyl)oxazole], the EC50 in the assay with MLL-AF9 cells and with OCI-AML3 cells was 50 to 100 nM throughout.
With `C(=C\c1nc(COc2ccc(CCCCn3ccnn3)cc2)co1)/c1cccnc1` [Compound 82, (E)-4-((4-(4-(1H-1,2,3-triazol-1-yl)butyl)phenoxy)methyl)-2-(2-(pyridin-3-yl)vinyl)oxazole], the EC50 with MLL-AF9 cells and in the assay with OCI-AML3 cells was 100 to 500 nM in each case.
For the compound `Fc1ncccc1/C=C/c1nc(COc2ccc(CCCCn3ccnn3)cc2)co1` [Compound 83, (E)-4-((4-(4-(1H-1,2,3-triazol-1-yl)butyl)phenoxy)methyl)-2-(2-(2-fluoropyridin-3-yl)vinyl)oxazole], the EC50 in the assay on MLL-AF9 cells was in the range of 100 to 500 nM; with OCI-AML3 cells, 500 to 1000 nM.
In the same order, the values of `C(=C\c1nc(COc2ccc(CCCCn3ccnn3)cc2)co1)/c1ccccn1` [Compound 84, (E)-4-((4-(4-(1H-1,2,3-triazol-1-yl)butyl)phenoxy)methyl)-2-(2-(pyridin-2-yl)vinyl)oxazole] are 1000 to 10000 nM and 1000 to 10000 nM.
For `Fc1cccnc1/C=C/c1nc(COc2ccc(CCCCn3ccnn3)cc2)co1` [Compound 85, (E)-4-((4-(4-(1H-1,2,3-triazol-1-yl)butyl)phenoxy)methyl)-2-(2-(3-fluoropyridin-2-yl)vinyl)oxazole] the same measures were 1000 to 10000 nM and 1000 to 10000 nM.
In the same order, the values of `O=C(CCO)NCCCCc1ccc(OCc2coc(/C=C/c3ccc(C(F)(F)F)cc3)n2)cc1` [Compound 86, (E)-3-hydroxy-N-(4-(4-((2-(4-(trifluoromethyl)styryl)oxazol-4-yl)methoxy)phenyl)butyl) propanamide] are 100 to 500 nM and 1000 to 10000 nM.
Take `CN(C)C(=O)OCCC(=O)NCCCCc1ccc(OCc2coc(/C=C/c3ccc(C(F)(F)F)cc3)n2)cc1` [Compound 87, (E)-3-oxo-3-((4-(4-((2-(4-(trifluoromethyl)styryl)oxazol-4-yl)methoxy)phenyl)butyl)amino)propyl dimethylcarbamate]: the results for the EC50 in the assay on MLL-AF9 cells and in the assay on OCI-AML3 cells were 100 to 500 nM and 500 to 1000 nM, respectively.
With `Fc1cc(C(F)(F)F)ccc1/C=C/c1nc(COc2ccc(CCCCn3cncn3)cc2)co1` [Compound 88], the EC50 was in the range of 500 to 1000 nM with MLL-AF9 cells and 1000 to 10000 nM in the assay on OCI-AML3 cells.
As to `FC(F)(F)c1ccc(/C=C/c2nc(COc3ccc(CCCCn4cncn4)cc3)co2)c(Oc2ccc(CCCCn3cncn3)cc2)c1` [Compound 89, (E)-2-(2-(4-(4-(1H-1,2,4-triazol-1-yl)butyl)phenoxy)-4-(trifluoromethyl)styryl)-4-((4-(4-(1H-1,2,4-triazol-1-yl)butyl)phenoxy)methyl)oxazole], the EC50 with MLL-AF9 cells and in the assay with OCI-AML3 cells was 1000 to 10000 nM throughout.
Regarding `Fc1cc(C(F)(F)F)ccc1/C=C/c1nc(COc2ccc(CCCCn3cnnn3)cc2)co1` [Compound 90, (E)-4-((4-(4-(1H-tetrazol-1-yl)butyl)phenoxy)methyl)-2-(2-fluoro-4-(trifluoromethyl)styryl) oxazole], the values for the EC50 with MLL-AF9 cells and with OCI-AML3 cells were 100 to 500 nM and 1000 to 10000 nM, respectively.
On to `Fc1cc(C(F)(F)F)ccc1/C=C/c1nc(COc2ccc(CCCCn3cccn3)cc2)co1` [Compound 91, (E)-4-((4-(4-(1H-pyrazol-1-yl)butyl)phenoxy)methyl)-2-(2-fluoro-4-(trifluoromethyl)styryl) oxazole], for which the figures for the EC50 in the assay on MLL-AF9 cells and in the assay on OCI-AML3 cells were 500 to 1000 nM and 1000 to 10000 nM, respectively.
For `Cc1cn(CCCCc2ccc(OCc3coc(/C=C/c4ccc(C(F)(F)F)cc4F)n3)cc2)nn1` [Compound 92, (E)-2-(2-fluoro-4-(trifluoromethyl)styryl)-4-((4-(4-(4-methyl-1H-1,2,3-triazol-1-yl)butyl)phenoxy)methyl) oxazole], the EC50 in the assay on MLL-AF9 cells was in the range of 100 to 500 nM; in the assay with OCI-AML3 cells, 500 to 1000 nM.
Consider `Cc1ncn(CCCCc2ccc(OCc3coc(/C=C/c4ccc(C(F)(F)F)cc4F)n3)cc2)n1` [Compound 93, (E)-2-(2-fluoro-4-(trifluoromethyl)styryl)-4-((4-(4-(3-methyl-1H-1,2,4-triazol-1-yl)butyl)phenoxy)methyl)oxazole], for which the 50% effective concentration (EC50) in the assay on MLL-AF9 cells is 500 to 1000 nM; with OCI-AML3 cells it was 1000 to 10000 nM.
In the same order, the values of `Cc1nnn(CCCCc2ccc(OCc3coc(/C=C/c4ccc(C(F)(F)F)cc4F)n3)cc2)n1` [Compound 94, (E)-2-(2-fluoro-4-(trifluoromethyl)styryl)-4-((4-(4-(5-methyl-2H-tetrazol-2-yl)butyl)phenoxy)methyl)oxazole] are 1000 to 10000 nM and 1000 to 10000 nM.
In the same order, the values of `OCCc1cn(CCCCc2ccc(OCc3coc(/C=C/c4ccc(C(F)(F)F)cc4F)n3)cc2)nn1` [Compound 95, (E)-2-(1-(4-(4-((2-(2-fluoro-4-(trifluoromethyl)styryl)oxazol-4-yl)methoxy)phenyl)butyl)-1H-1,2,3-triazol-4-yl)ethanol] are 100 to 500 nM and 1000 to 10000 nM.
For `COCCNC(=O)OCCc1cn(CCCCc2ccc(OCc3coc(/C=C/c4ccc(C(F)(F)F)cc4F)n3)cc2)nn1` [Compound 96, (E)-2-(1-(4-(4-((2-(2-fluoro-4-(trifluoromethyl)styryl)oxazol-4-yl)methoxy)phenyl)butyl)-1H-1,2,3-triazol-4-yl)ethyl (2-methoxyethyl)carbamate] the same measures were 100 to 500 nM and 500 to 1000 nM.
As for `O=C(NC1CCCC1)OCCc1cn(CCCCc2ccc(OCc3coc(/C=C/c4ccc(C(F)(F)F)cc4F)n3)cc2)nn1` [Compound 97, (E)-2-(1-(4-(4-((2-(2-fluoro-4-(trifluoromethyl)styryl)oxazol-4-yl)methoxy)phenyl)butyl)-1H-1,2,3-triazol-4-yl)ethyl cyclopentylcarbamate], the EC50 in the assay on MLL-AF9 cells and in the assay on OCI-AML3 cells was 100 to 500 nM throughout.
Consider `CC(C)NC(=O)OCCc1cn(CCCCc2ccc(OCc3coc(/C=C/c4ccc(C(F)(F)F)cc4F)n3)cc2)nn1` [Compound 98, (E)-2-(1-(4-(4-((2-(2-fluoro-4-(trifluoromethyl)styryl)oxazol-4-yl)methoxy)phenyl)butyl)-1H-1,2,3-triazol-4-yl)ethyl isopropylcarbamate], for which the EC50 is 50 to 100 nM with MLL-AF9 cells and 100 to 500 nM in the assay on OCI-AML3 cells.
For `O=[N+]([O-])c1ccc(/C=C/c2nc(COc3ccc(CCCCn4ccnc4)cc3)co2)c(F)c1` [Compound 99, (E)-4-((4-(4-(1H-imidazol-1-yl)butyl)phenoxy)methyl)-2-(2-fluoro-4-nitrostyryl)oxazole] the same measures were 100 to 500 nM and 100 to 500 nM.
For `Fc1cc(C(F)(F)F)ccc1/C=C/c1nc(COc2ccc(CCCCn3ccnc3)cc2)co1` [Compound 100, (E)-4-((4-(4-(1H-imidazol-1-yl)butyl)phenoxy)methyl)-2-(2-fluoro-4-(trifluoromethyl)styryl)oxazole] the same measures were 500 to 1000 nM and 500 to 1000 nM.
As to `O=[N+]([O-])c1ccc(/C=C/c2nc(COc3ccc(CCCCn4ccnn4)cc3)co2)c(Oc2ccc(CCCCn3ccnn3)cc2)c1` [Compound 101, (E)-2-(2-(4-(4-(1H-1,2,3-triazol-1-yl)butyl)phenoxy)-4-nitrostyryl)-4-((4-(4-(1H-1,2,3-triazol-1-yl)butyl)phenoxy)methyl)oxazole], the EC50 in the assay with MLL-AF9 cells and with OCI-AML3 cells was 1000 to 10000 nM each time.
For the compound `Fc1cc(C(F)(F)F)ccc1/C=C/c1nc(COc2ccc(CCCCc3cccnc3)cc2)co1` [Compound 102, (E)-2-(2-fluoro-4-(trifluoromethyl)styryl)-4-((4-(4-(pyridin-3-yl)butyl)phenoxy)methyl)oxazole], the EC50 with MLL-AF9 cells and in the assay with OCI-AML3 cells was 100 to 500 nM in each case.
Consider `O=[N+]([O-])c1ccc(/C=C/c2nc(COc3ccc(CCCCc4cccnc4)cc3)co2)c(F)c1` [Compound 103, (E)-2-(2-fluoro-4-nitrostyryl)-4-((4-(4-(pyridin-3-yl)butyl)phenoxy)methyl)oxazole], for which the EC50 with MLL-AF9 cells and in the assay on OCI-AML3 cells was 100 to 500 nM in each case.
In the case of `Fc1cc(C(F)(F)F)ccc1/C=C/c1nc(COc2ccc(CCCCc3ccncc3)cc2)co1` [Compound 104, (E)-2-(2-fluoro-4-(trifluoromethyl)styryl)-4-((4-(4-(pyridin-4-yl)butyl)phenoxy)methyl)oxazole], the EC50 in the assay with MLL-AF9 cells and with OCI-AML3 cells was 1000 to 10000 nM each time.
In the case of `Fc1cc(C(F)(F)F)ccc1/C=C/c1nc(COc2ccc(CCCn3ccnn3)cc2)co1` [Compound 105, (E)-4-((4-(3-(1H-1,2,3-triazol-1-yl)propyl)phenoxy)methyl)-2-(2-fluoro-4-(trifluoromethyl)styryl)oxazole], the EC50 with MLL-AF9 cells was 500 to 1000 nM; in the assay on OCI-AML3 cells it was 100 to 500 nM.
